Patent publication US20110144159A1, “ETHER BENZYLIDENE PIPERIDINE ARYL CARBOXAMIDE COMPOUNDS USEFUL AS FAAH INHIBITORS” (Pfizer Inc, priority 2008, published 2011)

Molecular target: T1, Human FAAH (Homo sapiens, UniProt O00519)
T1 construct: made in house
T1 sequence (O00519 32-579 limits assumed): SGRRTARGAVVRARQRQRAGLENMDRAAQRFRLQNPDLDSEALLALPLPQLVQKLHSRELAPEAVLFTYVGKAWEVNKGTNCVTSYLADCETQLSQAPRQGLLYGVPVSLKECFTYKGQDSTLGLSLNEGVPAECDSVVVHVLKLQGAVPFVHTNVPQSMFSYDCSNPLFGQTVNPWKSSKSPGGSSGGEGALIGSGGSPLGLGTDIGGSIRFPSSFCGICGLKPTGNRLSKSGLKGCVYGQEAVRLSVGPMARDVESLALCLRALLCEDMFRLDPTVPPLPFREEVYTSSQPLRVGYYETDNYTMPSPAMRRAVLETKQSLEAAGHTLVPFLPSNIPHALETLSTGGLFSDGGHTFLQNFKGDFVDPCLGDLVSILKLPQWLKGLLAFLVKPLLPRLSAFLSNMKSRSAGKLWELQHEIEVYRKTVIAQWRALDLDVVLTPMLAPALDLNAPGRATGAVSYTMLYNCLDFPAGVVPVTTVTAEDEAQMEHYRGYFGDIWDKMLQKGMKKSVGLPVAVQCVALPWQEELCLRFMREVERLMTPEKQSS
Experiment: FAAH assay (glutamate dehydrogenase-coupled, oleamide substrate, absorbance at 340 nm)
Type: biochemical
Conditions: irreversible inhibition potency
Description: A FAAH assay may be carried out in 384-well clear polystyrene plates in a total volume of 50 μl per well. All percents are by volume. To each well was placed the reaction mixture (40 μl) containing 1-4 nM FAAH, 50 mM NaPi, pH 7.4, 3 mM α-ketoglutarate, 0.15 mM NADH, 7.5 U/ml glutamate dehydrogenase, 2 mM ADP, 1 mM EDTA, and 0.1% Triton X-100 (The concentration shown for each component was the final concentration in the assay). To this mixture was added 5 μl of a compound of Examples 1 to 20 at various concentrations prepared in 50% DMSO (or 5 μl 50% DMSO for controls). This was immediately followed by the addition of 5 μl oleamide (500 μM) dissolved in 75% EtOH/25% DMSO and the reaction mixture was mixed for 1.5 min. The final concentrations of DMSO and EtOH in the assay are each 7.5%. The reactions was then incubated at 30° C. and the absorbance at 340 nm was collected over a period of 90 min with readings taken in 30-second intervals using SpectraMax Plus^384 Microplate Spectrophotometer (Molecular Devices, Sunnyvale, Calif.). Human FAAH used in the assay was prepared as described in the patent application WO 2006/067613. The purity of the enzyme used was greater than 98% based on an analysis by SDS-polyacrylamide gel electrophoresis followed by Coomassie Blue staining.
Initial velocity data (V) is obtained from the slopes of the initial progressive curves. They are plotted as a function of substrate concentration and fit to the Michaelis-Menten equation (1) using Prism (GraphPad Software, Inc., San Diego, Calif.) software to obtain Km and Vmax values.
To obtain potencies of irreversible inhibitors, progressive curves consistent with first order inhibition kinetics (two-step irreversible inhibition mechanism) are fit to equation (2) by nonlinear least squares regressions to determine kobs values at each inhibitor concentration, where [P]t is the absorbance at time t, V0 is a constant related to the steady state rate of the uninhibited reaction, and kobs is the first order rate constant for enzyme inactivation. The inhibitor dissociation constant (Ki) and the first order rate
constant of enzyme inactivation at infinite inhibitor concentration (kinact) are then obtained by fitting the kobs vs. [I] curves to equation (3).

Row | Compound | hFAAH KInact/K
1 | 4-(3-{[trans-4-(cyanomethyl)cyclohexyl]methoxy}benzylidene)-N-pyridazin-3-ylpiperidine-1-carboxamide [Example 96] | 1470 M⁻¹ s⁻¹
2 | 4-[3-(1-methyl-2-phenoxyethoxy)benzylidene]-N-pyridazin-3-ylpiperidine-1-carboxamide [Example 90] | 3971 M⁻¹ s⁻¹
3 | 4-{3-[2-(3-methoxyphenyl)ethoxy]benzylidene}-N-pyridazin-3-ylpiperidine-1-carboxamide [Example 85] | 7770 M⁻¹ s⁻¹
4 | 4-{3-[(2,4-dimethyl-1,3-thiazol-5-yl)methoxy]benzylidene}-N-pyridazin-3-ylpiperidine-1-carboxamide [Example 69] | 331 M⁻¹ s⁻¹
5 | 4-{3-[(2-methylpyridin-3-yl)methoxy]benzylidene}-N-pyridazin-3-ylpiperidine-1-carboxamide [Example 59] | 328 M⁻¹ s⁻¹
6 | CCOc1cccc(C=C2CCN(C(=O)Nc3cccnc3)CC2)c1 [Example 1, 4-(3-ethoxybenzylidene)-N-pyridin-3-ylpiperidine-1-carboxamide] | 2020 M⁻¹ s⁻¹
7 | COc1cccc(C=C2CCN(C(=O)Nc3cccnc3)CC2)c1 [Example 2, 4-(3-methoxybenzylidene)-N-pyridin-3-ylpiperidine-1-carboxamide] | 973 M⁻¹ s⁻¹
8 | O=C(Nc1cccnn1)N1CCC(=Cc2ccc3c(c2)OCO3)CC1 [Example 3, 4-(1,3-benzodioxol-5-ylmethylene)-N-pyridazin-3-ylpiperidine-1-carboxamide] | 2870 M⁻¹ s⁻¹
9 | O=C(Nc1cccnn1)N1CCC(=Cc2ccc3c(c2)OCCO3)CC1 [Example 4, 4-(2,3-dihydro-1,4-benzodioxin-6-ylmethylene)-N-pyridazin-3-ylpiperidine-1-carboxamide] | 2770 M⁻¹ s⁻¹
10 | O=C(Nc1cccnn1)N1CCC(=Cc2cccc(OC(F)(F)F)c2)CC1 [Example 5, N-pyridazin-3-yl-4-[3-(trifluoromethoxy)benzylidene]piperidine-1-carboxamide] | 2250 M⁻¹ s⁻¹
11 | COc1cccc(C=C2CCN(C(=O)Nc3cccnn3)CC2)c1 [Example 6, 4-(3-methoxybenzylidene)-N-pyridazin-3-ylpiperidine-1-carboxamide] | 1480 M⁻¹ s⁻¹
12 | O=C(Nc1cccnc1)N1CCC(=Cc2cccc(OC3CCCCC3)c2)CC1 [Example 7, 4-[3-(cyclohexyloxy)benzylidene]-N-pyridin-3-ylpiperidine-1-carboxamide] | 1220 M⁻¹ s⁻¹
13 | O=C(Nc1cccnc1)N1CCC(=Cc2cccc(OC3CCC3)c2)CC1 [Example 8, 4-[3-(cyclobutyloxy)benzylidene]-N-pyridin-3-ylpiperidine-1-carboxamide] | 324 M⁻¹ s⁻¹
14 | O=C(Nc1cccnn1)N1CCC(=Cc2cccc(OC3CCC3)c2)CC1 [Example 9, 4-[3-(cyclobutyloxy)benzylidene]-N-pyridazin-3-ylpiperidine-1-carboxamide] | 531 M⁻¹ s⁻¹
15 | O=C(Nc1cccnn1)N1CCC(=Cc2cccc(OC3CCCCC3)c2)CC1 [Example 10, 4-[3-(cyclohexyloxy)benzylidene]-N-pyridazin-3-ylpiperidine-1-carboxamide] | 3300 M⁻¹ s⁻¹
16 | O=C(Nc1cccnc1)N1CCC(=Cc2cccc(OC3CCCC3)c2)CC1 [Example 11, 4-[3-(cyclopentyloxy)benzylidene]-N-pyridin-3-ylpiperidine-1-carboxamide] | 1900 M⁻¹ s⁻¹
17 | O=C(Nc1cccnc1)N1CCC(=Cc2cccc(OC3CCCOC3)c2)CC1 (centres unmarked) [Example 12, N-pyridin-3-yl-4-[3-(tetrahydro-2H-pyran-3-yloxy)benzylidene]piperidine-1-carboxamide] | 907 M⁻¹ s⁻¹
